The values that follow come from patent publication US20080261263A1, “In Vitro Evaluation of Micro-Organisms and Their Antimicrobial Agent Susceptibilities” (SYFT Technologies Limited, priority 2005, published 2008).

In brackets after ≈: the same amount, converted by molar mass.

The subject of experiment [1] is S. aureus. The experiment can be described thus: Effect of antibiotic on S. aureus blood culture headspace VC production (SIFT-MS SIMscan). The class given is cell-based, Staphylococcus aureus. To be noted: for Ammonia mean concentration / DMS mean concentration: S. aureus 6 h; for Aminoacetophenone mean concentration / Ethanol mean concentration / Formaldehyde mean concentration: S. aureus 22 h; for Inhibition of aminoacetophenone, ethanol and formaldehyde: S. aureus 22 hours; for Effect on production of ammonia and dimethylsulfide by S. aureus: six hours, flucloxacillin above and below its MIC. An excerpt:
(§1) In one form of the method headspace atmospheres are introduced above conventional Biomerieux BacT/ALERT® aerobic or anaerobic blood cultures at a controlled rate into the flow tube precursor ion stream. The count rates of the resulting product ions are then to be determined by a “downstream” quadrupole and particle multiplier detector. Operating in full scan mode, the detector quadrupole is scanned over a predetermined m/z range to obtain a spectrum of product ions. In selected ion mode (SIMscan) the count rate of selected product ions is determined as the downstream […] is switched to and remains on selected m/zs.
(§2) Standard Biomerieux (Durham, N.C., USA) BacT/ALERT® SA, FA and SN disposable, plastic culture bottles containing 40 ml of culture medium were used throughout the experiments. 9 ml of healthy, uninfected human blood and 1 ml aliquots of antibiotics prepared in sterile water were added (in the relevant experiments) as required to each bottle prior to the addition of 1 ml of bacterial species suspended in sterile physiological saline.
(§3) SIFT-MS mass scan studies comparing 24 hour BacT/ALERT®SA blood culture headspace VCs with medium+blood controls identified a test panel of SIM VC analytes suitable for the five bacterial species tested. These bacterial metabolites included acetaldehyde, acetic acid, acetone, 2-aminoacetophenone, ammonia, dimethyldisulfide (DMDS), dimethylsulfide (DMS), formaldehyde, ethanol, hydrogen sulfide, indole, methanethiol, pentanols and propanol. […] absolute concentration measurements in parts per billion (ppb v/v) were integrated, averaged and recorded separately for acetaldehyde, acetic acid, ethanol, acetone, ammonia, hydrogen sulfide, DMS and DMDS during each 30 second SIMscan for each triplicate culture of the five test species after incubation in BacT/ALERT aerobic media. The results are recorded in Table 1 (below).
(§4) Approximately 10^3 CFU E. coli or S. aureus were inoculated into Biomerieux BacT/ALERT® SA bottles including 9 ml of fresh uninfected blood. Each bacterial species was incubated in triplicate either alone or in the presence of antibiotics above or below their predetermined minimal inhibitory concentrations (MIC).
(§5) Gentamicin was added to E. coli cultures at either 2 μg/ml or 0.05 μg/ml (MIC 0.25-1 μg/m)l. Flucloxacillin was added to S. aureus cultures at 2 μg/ml or 0.05 μg/ml (MIC 0.12-0.5 μg/ml).
(§6) The mean, minima and maxima integrated headspace analyte concentration measurements obtained from E. coli and S. aureus cultures are compared in Tables 8 and 9.

For experiment [2], the system named is S. aureus. The experiment can be described thus: Predetermined minimal inhibitory concentration (MIC) for S. aureus. To be noted: Staphylococcus aureus. In kind it is cell-based.
Experiment [3] relates to E. coli. Description: Effect of antibiotic on E. coli blood culture headspace VC production (SIFT-MS SIMscan). The class given is cell-based, Escherichia coli.
Excerpt: as §1, §2, §3, §4, §5, §6

Experiment [4] concerns E. coli. Description: Predetermined minimal inhibitory concentration (MIC) for E. coli. In kind it is cell-based, Escherichia coli.
[5] abbreviates: flucloxacillin <MIC (0.05 μg/ml).
Setting [6] is: E. coli 6 h, gentamicin <MIC (0.05 μg/ml).
[7] abbreviates: E. coli 6 h, gentamicin >MIC (2 μg/ml).
Where [8] appears, read: E. coli 22 h, gentamicin <MIC (0.05 μg/ml).
Setting [9] is: E. coli 22 h, gentamicin >MIC (2 μg/ml).

The term MIC denotes the lowest concentration that inhibits growth of the organism. Read a high MIC as a need for much substance. `Cc1onc(-c2c(F)cccc2Cl)c1C(=O)N[C@@H]1C(=O)N2[C@@H]1SC(C)(C)[C@@H]2C(=O)O` [Flucloxacillin]: in the experiment with S. aureus [1] (setting [5]), the Ammonia mean concentration was 40 ppb, the DMS mean concentration is 30 ppb, the Aminoacetophenone mean concentration is reported as 200 ppb and the Ethanol mean concentration is 7500 ppb. The compound also registered a Formaldehyde mean concentration in the experiment with S. aureus [1] (setting [5]) of 60 ppb. Besides, in the experiment on S. aureus [1] (flucloxacillin >MIC (2 μg/ml)), the Ammonia mean concentration stood at 50 ppb, the DMS mean concentration came to 10 ppb, the Aminoacetophenone mean concentration is listed as 60 ppb and the Ethanol mean concentration stood at 1900 ppb. For the same compound, in the experiment with S. aureus [1] (flucloxacillin >MIC (2 μg/ml)), the Formaldehyde mean concentration came out at 20 ppb. In addition, the “Inhibition of aminoacetophenone, ethanol and formaldehyde” value with S. aureus [1] (flucloxacillin above its MIC, p<0.01) was “notable”. In addition, the “Inhibition of aminoacetophenone, ethanol and formaldehyde” value in the experiment with S. aureus [1] (lower flucloxacillin concentration (below MIC)) is on record as “not inhibitory”. For the same compound, in the experiment with S. aureus [1], the “Effect on production of ammonia and dimethylsulfide by S. aureus” value is “significantly reduced”. Also, the “Effect on production of ammonia and dimethylsulfide by S. aureus” value in the experiment on S. aureus [1] (listed as flucloxacillin) was “inhibited to uninoculated, antibiotic-containing control levels”. The compound also yielded an MIC against S. aureus [2] of 0.12 to 0.5 µg/mL (≈ 0.264 to 1.1 µM).

For Gentamicin, in the experiment on E. coli [3] (setting [6]), the “Hydrogen sulfide mean concentration” value was 0 ppb and the Pentanols mean concentration was 120 ppb. In the experiment with E. coli [3] (setting [7]), the “Hydrogen sulfide mean concentration” value is listed as 0 ppb and the Pentanols mean concentration amounted to 90 ppb. For the same compound, in the experiment on E. coli [3] (setting [8]), the Acetaldehyde mean concentration stood at 3300 ppb, the “Acetic acid mean concentration” value turned out to be 1950 ppb, the Aminoacetophenone mean concentration is given as 900 ppb and the DMDS mean concentration is 380 ppb. Moreover, in the experiment with E. coli [3] (setting [8]), the DMS mean concentration was 30 ppb, the Ethanol mean concentration stood at 42000 ppb, the Formaldehyde mean concentration is 140 ppb and the “Hydrogen sulfide mean concentration” value stood at 1030 ppb. Moreover, in the experiment on E. coli [3] (setting [8]), the Indole mean concentration is listed as 210 ppb, the Methanethiol mean concentration is on record as 1400 ppb, the Pentanols mean concentration was found to be 220 ppb and the Propanol mean concentration came to 5800 ppb. Moreover, in the experiment with E. coli [3] (setting [9]), the Acetaldehyde mean concentration worked out at 2700 ppb, the “Acetic acid mean concentration” value worked out at 600 ppb, the Aminoacetophenone mean concentration is 280 ppb and the DMDS mean concentration is given as 190 ppb. Further, in the experiment with E. coli [3] (setting [9]), the DMS mean concentration was determined as 30 ppb, the Ethanol mean concentration is 16000 ppb, the Formaldehyde mean concentration was determined as 110 ppb and the “Hydrogen sulfide mean concentration” value was 6 ppb. In the experiment with E. coli [3] (setting [9]), this compound showed an Indole mean concentration of 110 ppb, a Methanethiol mean concentration of 150 ppb, a Pentanols mean concentration of 90 ppb and a Propanol mean concentration of 1700 ppb. Also, the “Effect on production of all headspace VCs (except formaldehyde)” value in the experiment with E. coli [3] (E. coli 22 hours, gentamicin above its MIC, p<0.005) is listed as “significantly inhibited”. Further, the “Effect on most analytes (except hydrogen sulfide and methanethiol)” value in the experiment on E. coli [3] (E. coli 22 hours, gentamicin below its MIC, p<0.01) is “Significant (p<0.01) reductions”. Besides, in the experiment with E. coli [3] (six hours, both gentamicin concentrations), the “Effect on production of hydrogen sulfide by E. coli” value is “eliminated”. The compound further returned an MIC in the experiment with E. coli [4] of 0.25 to 1 µg/mL.
